Several values for one entry are separate records, joined by “and”; a condition that tells them apart may be missing. Identical values can stand only once.
Tested on: sunflower genotypes carrying the A122T mutation event
Assay: Greenhouse imazapir dose response, A122T genotypes together
Type: in vivo, Helianthus annuus
Settings: 14 DAT; for biomass accumulation, Dif with control / plant height, Dif with Control / root dry weight, Dif with control: A122T mean; for Phytotoxicity Index, Dif A205V − A122T / biomass accumulation, Dif A122T − A205V / plant height, Dif A122T − A205V / root dry weight, Dif A122T − A205V: difference of group means; for biomass accumulation, % of untreated, Mean / plant height, % of untreated, Mean / root dry weight, % of untreated, Mean: six A122T genotypes; for Phytotoxicity Index, Mean: three A122T genotypes
Method: A greenhouse study was conducted to quantify and contrast the imazapir sensivity of the mutants A122T and A205V in different genetic backgrounds at the whole plant level in sunflower. Seeds of the different sunflower lines that were used in this study were obtained under field conditions.
Seeds were sown in Petri dishes and, after germination, plantlets were transplanted to pots of 10 cm of diameter in a potting media consisting of equal parts of vermiculite, soil and sand. Plants were grown in a greenhouse under natural light conditions supplemented with 400 W sodium halide lamps to provide a 16 hrs daylength. Day/night temperatures were 25 and 20° C., respectively. At the V2 stage 10 plants of each genotype were randomly assigned to each treatment consisting of […] imazapir doses (0, 40, 80, 160, 240, 320, 400 and 480 g ai/ha), and a zero-time biomass determination. Experiment was arranged as a randomized block design with a full factorial (sunflower line×treatment) arrangement of treatments and 10 replications.
On the day of herbicide application ten plants of each genotype were cut at the cotyledonal node and dried at 60° C. for 48 hrs zero-time for dried weight determination. […] Height was determined as the distance between the cotyledonal node and the apex of each plant. For root biomass determination, each plant was taken from the pot and the potting media was washed out from the roots. Above ground biomass data from each line were converted to biomass accumulation after application by subtracting the appropriate average zero-time biomass from each sample. Dry biomass data were converted to percentages of the untreated control plants within each line to allow direct comparisons between groups.

For `CC(C)C1(C)N=C(c2ncccc2C(=O)O)NC1=O` (centres unmarked) [Imazapyr, imazapyr], the “biomass accumulation, Dif with control” value (5x (400 g ai/ha)) was 20.7%, the “plant height, Dif with Control” value (5x (400 g ai/ha)) was 10.2% and the “root dry weight, Dif with control” value (5x (400 g ai/ha)) was 21.3%. For the same compound, the “plant height, Dif with Control” value (6x (480 g ai/ha)) was 15.8%, the “root dry weight, Dif with control” value (6x (480 g ai/ha)) was 38.3% and the “biomass accumulation, Dif with control” value (6x (480 g ai/ha), listed as imazapir) was 25% and 25.4%. For the same compound, the “Phytotoxicity Index, Dif A205V − A122T” value (0.5x (40 g ai/ha)) was −0.29, the “biomass accumulation, Dif A122T − A205V” value (0.5x (40 g ai/ha)) was 4.3% and the “plant height, Dif A122T − A205V” value (0.5x (40 g ai/ha)) was 4.9%. For the same compound, the “root dry weight, Dif A122T − A205V” value (0.5x (40 g ai/ha)) was 12.7%, the “Phytotoxicity Index, Dif A205V − A122T” value (1x (80 g ai/ha)) was −0.29 and the “biomass accumulation, Dif A122T − A205V” value (1x (80 g ai/ha)) was 14.5%. The “plant height, Dif A122T − A205V” value (1x (80 g ai/ha)) was 9.4%, the “root dry weight, Dif A122T − A205V” value (1x (80 g ai/ha)) was 26.7% and the “Phytotoxicity Index, Dif A205V − A122T” value (2x (160 g ai/ha)) was 1.87. The “biomass accumulation, Dif A122T − A205V” value (2x (160 g ai/ha)) was 33.2%, the “plant height, Dif A122T − A205V” value (2x (160 g ai/ha)) was 28.0% and the “root dry weight, Dif A122T − A205V” value (2x (160 g ai/ha)) was 43.6%. For the same compound, the “Phytotoxicity Index, Dif A205V − A122T” value (3x (240 g ai/ha)) was 4.81, the “biomass accumulation, Dif A122T − A205V” value (3x (240 g ai/ha)) was 45.3% and the “plant height, Dif A122T − A205V” value (3x (240 g ai/ha)) was 45.3%. The “root dry weight, Dif A122T − A205V” value (3x (240 g ai/ha)) was 50.2%, the “Phytotoxicity Index, Dif A205V − A122T” value (4x (320 g ai/ha)) was 6.92 and the “biomass accumulation, Dif A122T − A205V” value (4x (320 g ai/ha)) was 52.4%. For the same compound, the “plant height, Dif A122T − A205V” value (4x (320 g ai/ha)) was 59.9%, the “root dry weight, Dif A122T − A205V” value (4x (320 g ai/ha)) was 50.3% and the “Phytotoxicity Index, Dif A205V − A122T” value (5x (400 g ai/ha)) was 7.38. The “biomass accumulation, Dif A122T − A205V” value (5x (400 g ai/ha)) was 46.9%, the “plant height, Dif A122T − A205V” value (5x (400 g ai/ha)) was 57.8% and the “root dry weight, Dif A122T − A205V” value (5x (400 g ai/ha)) was 47.9%. For the same compound, the “Phytotoxicity Index, Dif A205V − A122T” value (6x (480 g ai/ha)) was 7.03, the “biomass accumulation, Dif A122T − A205V” value (6x (480 g ai/ha)) was 44.6% and the “plant height, Dif A122T − A205V” value (6x (480 g ai/ha)) was 54.0%. For the same compound, the “root dry weight, Dif A122T − A205V” value (6x (480 g ai/ha)) was 37.3%, the “biomass accumulation, % of untreated, Mean” value (“biomass accumulation, %” below) (0.5x (40 g ai/ha)) was 98.9% and the “plant height, % of untreated, Mean” value (0.5x (40 g ai/ha)) was 99.4%. For the same compound, the “root dry weight, % of untreated, Mean” value (0.5x (40 g ai/ha)) was 99.9%, the “biomass accumulation, %” value (1x (80 g ai/ha)) was 96.8% and the “plant height, % of untreated, Mean” value (1x (80 g ai/ha)) was 98.6%. For the same compound, the “root dry weight, % of untreated, Mean” value (1x (80 g ai/ha)) was 97.5%, the “biomass accumulation, %” value (2x (160 g ai/ha)) was 94.9% and the “plant height, % of untreated, Mean” value (2x (160 g ai/ha)) was 97.3%. For the same compound, the “root dry weight, % of untreated, Mean” value (2x (160 g ai/ha)) was 94.1%, the “biomass accumulation, %” value (3x (240 g ai/ha)) was 92.8% and the “plant height, % of untreated, Mean” value (3x (240 g ai/ha)) was 95.6%. The “root dry weight, % of untreated, Mean” value (3x (240 g ai/ha)) was 89.4%, the “biomass accumulation, %” value (4x (320 g ai/ha)) was 87.8% and the “plant height, % of untreated, Mean” value (4x (320 g ai/ha)) was 93.7%. The “root dry weight, % of untreated, Mean” value (4x (320 g ai/ha)) was 81.4%, the “biomass accumulation, %” value (5x (400 g ai/ha)) was 79.3% and the “plant height, % of untreated, Mean” value (5x (400 g ai/ha)) was 89.8%. The “root dry weight, % of untreated, Mean” value (5x (400 g ai/ha)) was 78.7%, the “biomass accumulation, %” value (6x (480 g ai/ha)) was 74.6% and the “plant height, % of untreated, Mean” value (6x (480 g ai/ha)) was 84.2%. The “root dry weight, % of untreated, Mean” value (6x (480 g ai/ha)) was 61.7%, the “Phytotoxicity Index, Mean” value (0.5x (40 g ai/ha)) was 0.3 and the “Phytotoxicity Index, Mean” value (1x (80 g ai/ha)) was 0.3. The “Phytotoxicity Index, Mean” value (2x (160 g ai/ha)) was 0.3, the “Phytotoxicity Index, Mean” value (3x (240 g ai/ha)) was 0.3 and the “Phytotoxicity Index, Mean” value (4x (320 g ai/ha)) was 0.5. For the same compound, the “Phytotoxicity Index, Mean” value (5x (400 g ai/ha)) was 0.8 and the “Phytotoxicity Index, Mean” value (6x (480 g ai/ha)) was 1.2.

Reference: patent publication US20150181873A1, “HERBICIDE-RESISTANT SUNFLOWER PLANTS, POLYNUCLEOTIDES ENCODING HERBICIDE=RESISTANT ACETO HYDROXY ACID SYNTHASE LARGE SUBUNIT PROTEINS, AND METHODS OF USE” (NIDERA S.A., priority 2013, published 2015)
